# Data reported in US20090297624A1, “ARSENIC THERAPY FOR AUTOIMMUNE AND/OR INFLAMMATORY DISEASES IN MICE AND HUMANS” (CENTRE NATIONALE DE LA RECHERCHE SCIENTIFIQUE (CNRS), priority 2002, published 2009).
# Values joined by “and” are separate entries in the source; they are usually repeats but may differ in a detail not shown here. Identical values can stand only once.
# What was measured:
# [1] = tested on: MRL+/+ mouse; test: Arsenic treatment of control MRL+/+ mice; format: in vivo
# Procedure: (§1) Initially, the inventors determined the optimum dose of arsenic (As2O3) to be injected into the MRL/lpr mice. Two concentrations were chosen: 1 and 5 μg of As2O3/g of mouse. At date T0, these injections were given daily. […] Knowing that the MRL/lpr autoimmune mice die, on average, after 4 to 5 months, compared with the normal MRL+/+ mice which die after ˜2 years, the inventors decided to conserve, for the subsequent treatments, only the dose of 5 μg/g of mice.
# (§2) Each of the five groups has its controls consisting in injecting the dilution buffer for the arsenic. In addition, the animals present in the control and treated groups are derived from the same litter, which makes it possible to obtain reliable comparisons. At T0+5 months, more than 60 mice (MRL/lpr and MRL+/+) are undergoing treatment.
# (§3) In parallel with these studies on the skin, other organs that are targets for autoimmune pathologies, such as the kidney, the lung, the liver, the eye, etc., were removed and analyzed by anatomopathology. In addition, these various organs, along with the spleen, the lymph nodes and the thymus, were weighed.
# (§4) The aim of this group of animals, which was begun at T0, is to evaluate the preventive effect of an arsenic treatment on the development of the lymphoproliferation and of the autoimmune pathologies. To do this, 4 groups of animals 1.5 months old were formed. Two of these groups consist of MRL/lpr mice and the other two groups consist of MRL+/+ mice. One MRL/lpr group and one MRL+/+ group were treated with 5 μg of arsenic per gram of mouse, and the other two control groups were treated with the dilution buffer for the arsenic. At T0+1 month, animals from each group were sacrificed. The organs analyzed were the thymus, the spleen, the lymph nodes, the skin, the liver, the kidney and the heart. […] The arsenic therefore has a preventive effect on the development of the lymphoproliferation. The phenotype of the lymphoid populations present in this spleen and this node was determined by flow cytometry. As for the results for group 1, the arsenic makes it possible to eliminate the population of double-negative T cells which accumulate as the MRL/lpr mouse ages. In addition, the organs of these treated mice have a normal weight; there is therefore neither the lympho-proliferation nor the hepatomegaly that are observed in the control mice. The liver, the spleen, a lymph node, an eye, etc., were removed in order to be analyzed by anatomopathology.
# [2] = tested on: NOD (non obese diabetic) mice; test: Arsenic treatment of diabetic NOD mice, glucose in urine; format: in vivo, mouse; details: 5-month-old female NOD mice treated for 2 months
# Procedure: 5-Month-old female NOD (non obese diabetic) mice, which were developing the first symptoms of diabetes, were treated for 2 months with arsenic. The evolution of the pathology was evaluated by measuring the amount of glucose in the urine.
# [3] = tested on: MRL/lpr mouse; test: Curative arsenic (As2O3) treatment of MRL/lpr autoimmune mice; format: in vivo
# Description: The inventors have studied mice referred to as MRL mice homozygous for the lpr mutation (MRL/lpr). Lymphoproliferation (lpr) results in an accumulation of activated T lymphocytes, of phenotype CD4^+CD8^− or CD4^−CD8^+ which have escaped the process of negative regulation via the apoptotic pathway. Thus, in MRL/lpr mice, hypertrophy of lymph nodes occurs, the mass of which is 100 times greater than that of the lymph nodes of MRL+/+mice, which are congenic for the lpr gene, and a spleen whose size is multiplied by 7 and a thymus whose weight, at the 22nd week, is double that of the MRL+/+ mice are observed. These activated T lymphocytes which accumulate will gradually repress the expression of their CD4 or CD8 receptors and become double-negative T lymphocytes having the phenotype: TCRαβCD4^−CD8^−B220^+, which will be responsible for the lymphoproliferation.
# The MRL/lpr mouse is in particular a spontaneous model of autoimmune diseases such as disseminated lupus erythematosus with the presence of erythematous lesions of the skin and of rheumatoid arthritis. […] These mice produce, as they age, a large quantity of autoantibodies which are responsible for a lethal glomerulonephritis due to immunocomplex deposits in the glomeruli of the kidney. Thus, the lifespan of the MRL/lpr mouse is considerably shortened compared with that of the MRL+/+ mouse: ˜4-5 months in the MRL/lpr mouse compared with ˜2 years in the MRL+/+ mouse.
# as §1
# From the end of the first week of treatment, the inventors formed 5 groups of animals: • b 1st group, aimed at the curative treatment of an already present pathology, • 2nd group, aimed at preventing the appearance of pathologies, • 3rd group, aimed at determining the lifespan of the treated animals, • 4th group, aimed at determining the dose effect, • 5th group, aimed at evaluating the effect of stopping the treatment.
# as §2
# This study is aimed at the curative treatment of an already present pathology.
# as §3
# After 1 month and 20 days of treatment, a group of 3 control MRL/lpr mice and a group of 3 treated MRL/lpr mice were sacrificed in order to evaluate the effectiveness of the treatment on the lympho-proliferation. The organs analyzed were the thymus, the spleen and the lymph nodes. […] The phenotype of the lymphoid populations present in this spleen and this node was determined by flow cytometry. […] In addition, this cell population of abnormal phenotype is replaced with T lymphocytes of normal phenotype CD4^+CD8^− and CD4^−CD8^+ (FIG. 5). However, the level of reduction of the number of these double-negative T cells depends on the duration of the treatment. […]
# [4] = tested on: MRL+/+→MRL+/+ chimeras; test: As2O3 treatment of control MRL+/+→MRL+/+ chimeras; format: in vivo, mouse; details: serum ELISA
# Procedure: (§5) Hematopoietic chimeras. Spleen and bone marrow cells from MRL/lpr were injected i.v. into MRL+/+ lethally irradiated (1000 cGy) in a ^137Cesium irradiator (MRL/Lpr→MRL+/+ chimeras). The control group consisted of irradiated MRL+/+ grafted with MRL+/+ cells (MRL+/+→MRL+/+ chimeras). All mice used in this graft protocol were sex matched.
# (§6) MRL/Lpr→MRL+/+ and MRL+/+→MRL+/+ chimeras were injected i.p. daily with 2.5, 5, 7.5, 10 or 15 μg/g body weight of As2O3; controls received a daily i.p. injection of PBS (volume weight-determined). Treatments were initiated one week post-grafting.
# (§7) Serum levels of IFN-α, IFN-γ, soluble FasL, IL-18, TNF-α were assayed using the Mouse Interferon-alpha (PBL Biomedical laboratories, New Jersey, USA), the Mouse Interferon-gamma ELISA Ready-SET-Go (eBioscience, San Diego, Calif.), Mouse Fas Ligand Immunossay (Quantikine M kit; R&D systems, Minneapolis, Minn.), Mouse IL-18 ELISA (R&D Systems), Mouse TNF-α Immunoassay (R&D systems), respectively, following the manufacturer's instructions.
# [5] = tested on: MRL/lpr→MRL+/+ chimeras; test: As2O3 treatment of MRL/lpr→MRL+/+ chimeras (GVH reaction); format: in vivo, mouse
# Procedure: In addition, lethally irradiated MRL+/+ mice had their bone marrow reconstituted with bone marrow from MRL/lpr mice (MRL/lpr→MRL+/+ chimeras) or with bone marrow from MRL+/+ mice (MRL+/+→MRL+/+ chimeras) as a control. After reconstitution, the chimeras are treated with arsenic or are not treated. While 100% of the untreated MRL/lpr→MRL+/+ chimeras died of a graft-versus-host (GvH) reaction two weeks after the transplant, the chimeras treated with arsenic were alive. The arsenic is therefore effective against GvH and makes it possible to spectacularly increase the survival of the animals.
# as §5, §6
# Blood samples were collected at different times after grafting and glutamic-oxaloacetic transaminase (GOT) and glutamic-pyruvic transaminase (GPT) levels were measured (IU/l).
# as §7
# Serum levels of nitrite were measured using the Nitric Oxide quantification kit (Active Motif, Rixensart, Belgium), according to the manufacturer's instructions (data not shown).
# [6] = tested on: MRL/lpr mouse; test: Preventive arsenic treatment of MRL/lpr mice; format: in vivo
# Procedure: This study is aimed at preventing the appearance of the pathologies.
# as §4
# It is desirable to determine very precisely the preventive and curative effect of various doses of arsenic on the evolution of the pathologies developed by the MRL/lpr mice. Five groups of animals (MRL/lpr and MRL+/+) were treated with the following concentrations: 2.5, 5, 7.5, 10 and 15 μg/g of mouse.
# [7] = MRL+/+ mice treated with arsenic
# [8] = MRL/lpr mice treated with arsenic
# [9] = MRL/lpr, treated with arsenic for two months, treatment then stopped for two months
# [10] = end of the first month of treatment, 5 μg/g
# [11] = preventive, 5 μg/g, at T0+1 month
smiles,measurement,setting,value
O=[As]O[As]=O (centres unmarked) [As2O3],"Organ weight, 2 lungs",[1]; [7],0.32 grams and 0.30 grams
same,"Organ weight, axillary nodes",[1]; [7],0.01 grams
same,"Organ weight, heart",[1]; [7],0.22 grams
same,"Organ weight, kidney",[1]; [7],0.44 grams
same,"Organ weight, liver",[1]; [7],2.40 grams and 2.45 grams
same,"Organ weight, mesenteric nodes",[1]; [7],0.05 grams and 0.03 grams
same,"Organ weight, spleen",[1]; [7],0.10 grams and 0.15 grams
same,treatment-related pathologies,"[1]; MRL+/+ mice, 5 μg/g, at T0+5 months",no sign of treatment-related pathologies
same,glucose level in the urine,[2],normal glucose level in the urine
same,"curative effect (skin lesions, size of the nodes)",[3]; 2.5 μg/g of mouse,not sufficiently effective
same,lupus-specific skin lesions,"[3]; 5 μg of As2O3/g of mouse daily, after one week of treatment",spectacular signs of improvement
same,skin lesions,[3]; 5 μg/g,complete disappearance of skin lesions
same,skin lesions,[3]; 7.5 μg/g,complete disappearance of skin lesions
same,skin lesions,[3]; 10 μg/g,complete disappearance of skin lesions
same,"toxicity, curative treatment",[3]; 15 μg/g of mouse,lethal in a few days
same,immunocomplexes in the kidney,[3]; FIG. 7,absence of immunocomplexes in the kidney
same,infiltration of the kidney by cells of the immune system,[3]; FIG. 7,do not shown any infiltration
same,"Organ weight, 2 lungs",[3]; [8],0.33 grams and 0.40 grams
same,"Organ weight, axillary nodes",[3]; [8],0.01 grams and 0.02 grams
same,"Organ weight, heart",[3]; [8],0.20 grams and 0.25 grams
same,"Organ weight, kidney",[3]; [8],0.52 grams and 0.53 grams
same,"Organ weight, liver",[3]; [8],2.58 grams and 2.89 grams
same,"Organ weight, mesenteric nodes",[3]; [8],0.05 grams
same,"Organ weight, spleen",[3]; [8],0.13 grams and 0.17 grams
same,"Organ weight, 2 lungs",[3]; [9],0.51 grams and 0.50 grams
same,"Organ weight, heart",[3]; [9],0.29 grams and 0.26 grams
same,"Organ weight, kidney",[3]; [9],0.55 grams
same,"Organ weight, liver",[3]; [9],3.21 grams and 3.12 grams
same,"Organ weight, mesenteric nodes",[3]; [9],1.97 grams and 1.03 grams
same,size of the spleen and of a mesenteric node,"[3]; after 1 month and 20 days of treatment, FIG. 4",spectacular decrease
same,population of double-negative T lymphocytes TCRαβCD4-CD8-B220+,"[3]; after 1 month and 20 days of treatment, flow cytometry of spleen and node",virtually complete elimination
same,survival,"[3]; after 4 months, FIG. 9 legend",all the treated animals are alive
same,survival and signs of pathology,"[3]; after 35 weeks of treatment, FIG. 9",still alive with no signs of lymphoproliferation or of autoimmune pathologies
same,"pulmonary architecture, infiltration by lymphoid cells","[3]; anatomopathology, FIG. 3",normal pulmonary architecture
same,"amount of cytokines (alpha-IFN, gamma-IFN, IL-18, TNF-alpha, soluble FasL)","[3]; compared with normal MRL+/+ mice, FIG. 6",returns the amount of cytokines to a normal level
same,exophthalmia,[3]; [10],spectacular decrease
same,lupus-related skin lesions,[3]; [10],complete disappearance
same,lowest effective dose,[3]; mouse,5 µg/g
same,glomerulonephritis,"[3]; mouse, in vivo",significant reduction
same,"weight of lymph nodes, spleen and liver compared to MRL+/+ mouse",[3]; summary of table 1,returns the following organs to a normal weight
same,double-negative T cells,[3]; treatment of three months,eliminate all the double-negative T cells
same,pathologies after stopping treatment,[3]; treatment stopped for three months,reappearance of the lymphoproliferation and of the hepatomegaly
same,treated mice alive,"[3]; very sick MRL/lpr mice, at T0+14 weeks",100%
same,IFN-α synthesis,[4]; FIG. 11A,not affected
same,TNF-α synthesis,[4]; FIG. 11B,not affected
same,soluble and membrane-associated FasL levels,"[5]; ELISA of sera and Western blotting of lymphoid cell lysates, FIG. 10A",sharply decreased
same,serum IFN-α level,"[5]; ELISA, FIG. 11A",maintained normal cytokine concentrations
same,serum TNF-α level,"[5]; ELISA, FIG. 11B",maintained normal cytokine concentrations
same,Transaminase levels (GOT),[5]; FIG. 10B,normalised
same,level of other inflammatory cytokines and NO,[5]; data not shown,reduced
same,survival,"[5]; male and female chimeras with established GVH reaction, P<0.001, FIG. 12",significantly prolonged survival
same,survival of chimeras,[5]; two weeks after the transplant,alive
same,"toxicity, preventive treatment",[6]; 15 μg/g of mouse,very toxic and the animals died after two months
same,non-lymphoid organs such as the heart or the kidney,[6]; [11],not modified by the treatment
same,"organ weight (lymphoproliferation, hepatomegaly)",[6]; [11],normal weight
same,lymphoproliferation,"[6]; preventive, 1.5 months old mice, 5 μg/g, at T0+1 month",virtually complete absence of the lymphoproliferation
